Laboratory results: ChEMBL document CHEMBL4190392, “Enhancing Action of Positive Allosteric Modulators through the Design of Dimeric Compounds” (J Med Chem, 2018)

Target: Glutamate receptor 2 (Homo sapiens, UniProt P42262)
Assay: Positive allosteric modulation of GluA2Q flop isoform (unknown origin) expressed in HEK293 cells assessed as increase in L-glutamate induced calcium flux after 1 hr by fluo-4AM dye-based fluorescence assay
Format: cell-based

Sequence of Glutamate receptor 2 (P42262 whole entry, canonical isoform): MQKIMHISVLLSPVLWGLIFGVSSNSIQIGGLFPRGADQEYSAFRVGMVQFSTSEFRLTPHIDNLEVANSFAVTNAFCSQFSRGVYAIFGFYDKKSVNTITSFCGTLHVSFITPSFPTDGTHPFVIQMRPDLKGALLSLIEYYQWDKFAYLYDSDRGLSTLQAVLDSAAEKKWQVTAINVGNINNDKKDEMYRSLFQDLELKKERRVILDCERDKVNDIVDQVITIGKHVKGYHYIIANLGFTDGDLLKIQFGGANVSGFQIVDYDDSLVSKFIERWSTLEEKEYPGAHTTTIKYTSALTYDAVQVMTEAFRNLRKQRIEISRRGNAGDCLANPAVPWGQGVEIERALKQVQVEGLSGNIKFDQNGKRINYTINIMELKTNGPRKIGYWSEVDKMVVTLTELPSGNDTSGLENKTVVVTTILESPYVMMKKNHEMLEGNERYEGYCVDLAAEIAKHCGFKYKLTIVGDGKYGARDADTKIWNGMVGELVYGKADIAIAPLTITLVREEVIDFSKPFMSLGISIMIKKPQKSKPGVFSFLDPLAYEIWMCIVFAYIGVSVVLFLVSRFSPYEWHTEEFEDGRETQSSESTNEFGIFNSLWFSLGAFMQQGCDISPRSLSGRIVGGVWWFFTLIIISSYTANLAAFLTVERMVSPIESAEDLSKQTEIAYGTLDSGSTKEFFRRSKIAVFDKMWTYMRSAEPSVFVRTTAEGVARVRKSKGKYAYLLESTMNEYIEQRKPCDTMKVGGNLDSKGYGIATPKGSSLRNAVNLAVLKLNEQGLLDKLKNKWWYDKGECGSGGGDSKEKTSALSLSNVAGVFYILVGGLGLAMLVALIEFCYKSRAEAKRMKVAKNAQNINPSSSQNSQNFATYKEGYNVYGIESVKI

SMILES | EC50 (read-out: EC50) | EC50 (read-out: pEC50 (converted))
Cc1ccc2c(c1)N(C1CC1)CNS2(=O)=O | 48.2 µM | 49 µM
CN1CNS(=O)(=O)c2ccccc21 | 176 µM | –
O=S1(=O)NCN(C2CC2)c2cc(CCc3ccc4c(c3)N(C3CC3)CNS4(=O)=O)ccc21 | 0.0014 µM | –
Cc1ccc2c(c1)N(C)CNS2(=O)=O | 403 µM | –
CN1CNS(=O)(=O)c2ccc(CCc3ccc4c(c3)N(C)CNS4(=O)=O)cc21 | 0.0134 µM | 0.0145 µM
O=S1(=O)NCN(C2CC2)c2ccccc21 | 9.06 µM | –
